Data on ten compounds can be found in PubChem BioAssay AID651581 (Sanford-Burnham Center for Chemical Genomics, 2012).

Calls of active or inactive are those of the source. No rule for the calls is given here.

Experiment [1] has as its target Endothelial PAS domain-containing protein 1 (Homo sapiens) (UniProt Q99814). Nature of the experiment: potency against HIF reporters across cell lines – luminescence, panel, selectivity assay for HIF-2a inhibitor project, dose response (AID 651581). Conditions: human cell HIF reporter.
Experiment [2] concerns the target Hypoxia-inducible factor 1-alpha (Homo sapiens) (UniProt Q16665). The experiment is described as above. Conditions: human cell HIF reporter, HIF-1a.

Hypoxia-inducible factor 1-alpha (Homo sapiens), sequence (Q16665 whole entry, looked up): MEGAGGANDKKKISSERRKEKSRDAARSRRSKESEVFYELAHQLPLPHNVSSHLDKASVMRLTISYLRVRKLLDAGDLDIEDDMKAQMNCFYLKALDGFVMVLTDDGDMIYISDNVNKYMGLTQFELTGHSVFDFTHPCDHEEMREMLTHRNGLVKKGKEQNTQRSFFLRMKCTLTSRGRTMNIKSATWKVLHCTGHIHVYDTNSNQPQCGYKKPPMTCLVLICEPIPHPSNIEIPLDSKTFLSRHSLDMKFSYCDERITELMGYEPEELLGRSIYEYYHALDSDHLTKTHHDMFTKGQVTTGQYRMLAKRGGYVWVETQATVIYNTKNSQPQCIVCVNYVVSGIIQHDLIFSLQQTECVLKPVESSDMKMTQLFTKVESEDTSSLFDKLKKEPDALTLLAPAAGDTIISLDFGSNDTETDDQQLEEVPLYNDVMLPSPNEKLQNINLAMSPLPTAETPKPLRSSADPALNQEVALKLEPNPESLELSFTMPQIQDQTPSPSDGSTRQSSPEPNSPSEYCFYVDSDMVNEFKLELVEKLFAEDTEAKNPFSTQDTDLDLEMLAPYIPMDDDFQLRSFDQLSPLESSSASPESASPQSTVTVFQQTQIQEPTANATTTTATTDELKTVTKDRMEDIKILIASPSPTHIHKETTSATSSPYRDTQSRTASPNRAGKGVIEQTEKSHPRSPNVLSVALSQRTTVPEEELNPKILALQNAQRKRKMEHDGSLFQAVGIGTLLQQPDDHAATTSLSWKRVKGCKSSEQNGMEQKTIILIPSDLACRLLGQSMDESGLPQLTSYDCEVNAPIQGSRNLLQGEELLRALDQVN

Consider `CC(=O)c1ccc(NC(=O)c2cnn3ccccc23)cc1`, for which the IC50 in experiment [1] (HIF-2a PANC, mean of runs) was 18.4 µM; in experiment [1] (HIF-2a PANC, run 1), 20.3 µM; in experiment [1] (HIF-2a PANC, run 2), 16.6 µM; in experiment [1] (HIF-2a, run 1), 11.7 µM; in experiment [1] (HIF-2a, run 2), 9.93 µM; in experiment [2] (run 1), 12.9 µM. This compound displayed an IC50 in experiment [2] (run 2) of 20.6 µM. For the same compound, the IC50 result in experiment [1] (HIF-2a, mean of runs) is “inactive”; in experiment [2] (mean of runs), “inactive”.

`Cn1ncc2c(O/N=C(\N)c3ccc(C(C)(C)C)cc3)ncnc21`: the IC50 in experiment [1] (HIF-2a PANC, run 1) is less than 30 µM; in experiment [1] (HIF-2a PANC, run 2), 45.6 µM; in experiment [1] (HIF-2a, mean of runs), 4.17 µM; in experiment [1] (HIF-2a, run 1) it was 4.26 µM; in experiment [1] (HIF-2a, run 2) it was 4.08 µM; in experiment [2] (run 1) it was more than 99 µM. Also, in experiment [2] (run 2), the IC50 stood at 48.2 µM.

As for `COC(=O)c1ccc(C(=O)OC)c(-n2c(=O)c3ccccc3c3ccccc3c2=O)c1`, the IC50 in experiment [1] (HIF-2a PANC, mean of runs) is > 99 µM (inactive); in experiment [1] (HIF-2a PANC, run 1), more than 99 µM; in experiment [1] (HIF-2a PANC, run 2), more than 99 µM; in experiment [1] (HIF-2a, run 1), 25.7 µM; in experiment [1] (HIF-2a, run 2) it was 25.2 µM; in experiment [2] (run 1) it was 38.2 µM. In addition, the IC50 in experiment [2] (run 2) was determined as 42.4 µM. Besides, the IC50 result in experiment [1] (HIF-2a, mean of runs) is “inactive”; in experiment [2] (mean of runs) it was “inactive”.

Turning to `Cc1nc2cc(-c3ccccc3)nn2c(C)c1CCC(=O)N1CCN(c2ccccc2)CC1`, the concentration for half-maximal inhibition (IC50) in experiment [1] (HIF-2a PANC, mean of runs) is 1.59 µM; in experiment [1] (HIF-2a PANC, run 1) it was 1.41 µM; in experiment [1] (HIF-2a PANC, run 2), 1.77 µM; in experiment [1] (HIF-2a, mean of runs), 1.05 µM; in experiment [1] (HIF-2a, run 1), 0.978 µM; in experiment [1] (HIF-2a, run 2), 1.13 µM. In addition, the IC50 was 8.15 µM in experiment [2] (mean of runs), 8.3 µM in experiment [2] (run 1) and 7.99 µM in experiment [2] (run 2).

Consider `NC(=O)COC(=O)CCCSc1nc2ccccc2s1`, for which the IC50 in experiment [1] (HIF-2a PANC, run 1) is more than 99 µM; in experiment [1] (HIF-2a PANC, run 2) it was 81.1 µM; in experiment [1] (HIF-2a, mean of runs), 8.53 µM; in experiment [1] (HIF-2a, run 1), 8.5 µM; in experiment [1] (HIF-2a, run 2), 8.56 µM; in experiment [2] (run 1), 5.5 µM. The IC50 in experiment [2] (run 2) worked out at 12.1 µM. Also, the IC50 result in experiment [2] (mean of runs) is “inactive”.

On to `O=C(CCCc1nc(-c2ccccc2Cl)no1)NC1CCCC1`, for which the IC50 in experiment [1] (HIF-2a PANC, mean of runs) is 0.975 µM; in experiment [1] (HIF-2a PANC, run 1), 1.08 µM; in experiment [1] (HIF-2a PANC, run 2), 0.867 µM; in experiment [1] (HIF-2a, mean of runs), 1.04 µM; in experiment [1] (HIF-2a, run 1), 0.993 µM; in experiment [1] (HIF-2a, run 2), 1.08 µM. For the same compound, the results for the IC50 in experiment [2] (run 1) and in experiment [2] (run 2) were 1.26 µM and 1.83 µM, respectively. For the same compound, in experiment [2] (mean of runs), the IC50 result is “inactive”.

As to `O=C(Nc1ccccc1)c1nnsc1S(=O)(=O)c1ccc(Cl)cc1`, the IC50 entry in experiment [1] (HIF-2a PANC, mean of runs) is “inactive”. Besides, the IC50 was 44.3 µM in experiment [1] (HIF-2a PANC, run 1); 80.5 µM in experiment [1] (HIF-2a PANC, run 2); 7.71 µM in experiment [1] (HIF-2a, mean of runs); 7.38 µM in experiment [1] (HIF-2a, run 1); 8.04 µM in experiment [1] (HIF-2a, run 2); 28.6 µM in experiment [2] (mean of runs). For the same compound, the IC50 in experiment [2] (run 1) was determined as 27 µM; in experiment [2] (run 2) it was 30.2 µM.

With `C/C(=N\OCc1cccc(C(=O)O)c1)c1ccc(Cl)cc1`, the IC50 in experiment [1] (HIF-2a PANC, mean of runs) is > 99 µM (inactive); in experiment [1] (HIF-2a PANC, run 1), more than 99 µM; in experiment [1] (HIF-2a PANC, run 2) it was more than 99 µM; in experiment [1] (HIF-2a, run 1), less than 10 µM; in experiment [1] (HIF-2a, run 2), 5.87 µM; in experiment [2] (run 1) it was more than 99 µM. Further, the IC50 in experiment [2] (run 2) is more than 99 µM.

With `Cc1ccc(/C=N/Nc2cccc(C(=O)O)c2)s1`, the IC50 in experiment [1] (HIF-2a PANC, run 1) is more than 99 µM; in experiment [1] (HIF-2a PANC, run 2), more than 99 µM; in experiment [1] (HIF-2a, run 1), less than 30 µM; in experiment [1] (HIF-2a, run 2), more than 99 µM; in experiment [2] (mean of runs) it was > 99 µM (inactive); in experiment [2] (run 1), more than 99 µM. The same compound registered an IC50 in experiment [2] (run 2) of more than 99 µM.

Regarding `CN(C)S(=O)(=O)c1cccc(NC(=O)CSc2cccc3cccnc23)c1`, the IC50 in experiment [1] (HIF-2a PANC, mean of runs) was > 99 µM (inactive); in experiment [1] (HIF-2a PANC, run 1) it was more than 99 µM; in experiment [1] (HIF-2a PANC, run 2), more than 99 µM; in experiment [1] (HIF-2a, mean of runs) it was 5.4 µM; in experiment [1] (HIF-2a, run 1), 5.2 µM; in experiment [1] (HIF-2a, run 2), 5.6 µM. Further, the figures for the IC50 in experiment [2] (mean of runs), in experiment [2] (run 1) and in experiment [2] (run 2) were 34.4 µM, 31.1 µM and 37.7 µM, respectively.
